Source: BindingDB's records for doi:10.1021/bi00445a011 (Harvard University, 1989)

Target: T1, 3-dehydroquinate synthase (Escherichia coli (strain K12), UniProt P07639)
T1 sequence (P07639 whole entry): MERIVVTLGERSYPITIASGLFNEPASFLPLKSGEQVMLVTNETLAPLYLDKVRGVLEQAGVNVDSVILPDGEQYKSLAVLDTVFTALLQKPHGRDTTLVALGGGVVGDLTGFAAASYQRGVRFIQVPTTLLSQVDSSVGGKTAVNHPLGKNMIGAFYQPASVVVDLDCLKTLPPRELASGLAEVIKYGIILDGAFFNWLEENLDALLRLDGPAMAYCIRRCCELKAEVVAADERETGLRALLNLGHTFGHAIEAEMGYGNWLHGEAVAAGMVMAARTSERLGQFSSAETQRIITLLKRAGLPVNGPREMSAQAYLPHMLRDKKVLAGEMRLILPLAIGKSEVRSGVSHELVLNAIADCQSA
Experiment: Enzyme Inhibition
Excerpt: Enzyme inhibition using dehydroquinate synthase.

SMILES	Ki
O=C(O)C1(O)CC(O)C(O)C(CP(=O)(O)O)O1 (configuration not stated) [2,4,5-trihydroxy-6-(phosphonatomethyl)oxane-2-carboxylate, 4]	0.12 µM
O=C(O)C1CC(O)C(O)C(CP(=O)(O)O)O1 (configuration not stated) [4,5-dihydroxy-6-(phosphonatomethyl)oxane-2-carboxylate, 3]	35 µM
